The values that follow come from patent US8372848B2, “Melanin-concentrating hormone receptor antagonists and methods of use” (Mixture Sciences, Inc., priority 2004, dated 2013).

In one assay the test system is rats. Put plainly: MCH-induced food intake after icv administration. It is filed as in vivo, rat. Conditions: 2 nmol icv. As for the experimental part:
To determine inhibitory effects of TPI 1361-17 on MCH-induced food intake, rats were habituated to a wire bottom cage for more than 3 weeks prior to the experiment. Experiments were carried out from 6 a.m. to 7 a.m. when rats were satiated. […] On the other hand, five nmol of TPI 1361-17 suppressed cumulative food intake by 75% even at 4h (FIG. 5B).
To determine the effects of TPI 1361-17 on MCH-induced food intake, rats were randomly divided into three groups: 1) TPI 1361-17 (dissolved in DMSO) and 2 nmol of MCH; 2) MCH 2 nmol, 3) ACSF. Each mixture contained a DMSO equivalent concentration to that of the antagonist solution (up to 5% (v/v)). Ten μl of each solution was administered into lateral ventricle for 2 minutes. The injections were done between 7:00-8:00 a.m., and food intake was monitored for 4 h after the injection.
For animal studies, adult male Sprague-Dawley rats weighing 200-300g were obtained from Charles River Laboratories (Wilmington, Mass.), bearing a 23-gauge stainless steel cannula placed into the right lateral ventricle. Rats were housed individually and maintained on a 12 h light-dark cycle (6:00 am-6:00 pm light) with free access to tap water and rat chaw (PROLAB RMH 2500, containing 23.0% protein, 4.5% fat, gross energy 4.5 kcal/g. PMI nutrition international, LLC. Brentwood, Mo.). Prior to all studies, rats were handled and habituated for 7 days, and 10 μl of artificial cerebrospinal fluid (ACSF: NaCl 124, KCl 5, CaCl2 2.4 MgSO4 2, KH2PO4 1.25, NaHCO3 26 and glucose 10, in mM) was injected through the cannula to minimize stress effects at the time of the experiment. Cannula placement was confirmed in all animals by evaluating the response to 50 ng of angiotensin II. Only animals drinking more than 5 ml of water in 1 h were used in feeding studies.

The next assay addresses rat MCH1R (Rattus norvegicus, UniProt P97639). The assay can be described thus: MCH-induced Ca2+ mobilization (FLIPR) in HEK 293T cells expressing rat MCH1R. It is filed as cell-based. Particulars: HEK 293T cell expressing rat MCH1R; read-out: EC50 for stimulation of Ca2+ mobilization.

rat MCH1R, sequence (P97639 whole entry): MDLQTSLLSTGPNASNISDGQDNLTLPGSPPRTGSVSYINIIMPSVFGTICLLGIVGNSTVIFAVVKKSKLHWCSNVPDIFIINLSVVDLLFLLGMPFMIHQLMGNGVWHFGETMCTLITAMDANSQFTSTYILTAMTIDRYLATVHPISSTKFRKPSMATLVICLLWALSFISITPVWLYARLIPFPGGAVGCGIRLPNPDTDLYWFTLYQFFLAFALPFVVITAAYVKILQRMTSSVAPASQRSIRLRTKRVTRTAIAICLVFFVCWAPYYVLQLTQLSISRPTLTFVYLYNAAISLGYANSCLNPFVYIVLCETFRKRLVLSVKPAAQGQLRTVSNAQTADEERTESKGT

Regarding `CSCC[C@@H]1NC(=O)[C@@H](NC(=O)[C@H](CCCNC(=N)N)NC(=O)[C@H](CC(C)C)NC(=O)[C@H](CCSC)NC(=O)[C@H](CC(=O)O)NC(=O)[C@H](Cc2ccccc2)NC(=O)[C@@H](N)CC(=O)O)CSSC[C@@H](C(=O)N[C@@H](Cc2c[nH]c3ccccc23)C(=O)N[C@@H](CCC(N)=O)C(=O)N[C@H](C(=O)O)C(C)C)NC(=O)[C@@H]2CCCN2C(=O)[C@H](CCCNC(=N)N)NC(=O)[C@H](Cc2ccc(O)cc2)NC(=O)[C@H](C(C)C)NC(=O)[C@H](CCCNC(=N)N)NC(=O)CNC(=O)[C@H](CC(C)C)NC1=O` [MCH, reference compound], in the assay on rats, the “Feeding in satiated rats” value is “induced rapid and robust feeding”. In addition, the EC50 (usually the concentration at which the effect is half-maximal) on rat MCH1R was 0.9 nM.
